Data published in ChEMBL document CHEMBL1138518 (J Med Chem, 2009).

Experiments:
[1] = system: SK-BR-3; assay: Cytotoxicity against human SKBR3 cells after 72 hrs by celltiter-glo assay; type: functional, cell-based; details: Homo sapiens, SK-BR-3, 72 h
[2] = Dissociation constant, pKa of the compound; type: physicochemical
[3] = biological target: Heat shock protein HSP 90-beta (Homo sapiens, UniProt P08238); assay: Binding affinity to human recombinant HSP90
[4] = Chemical stability assessed as half life at pH 7.75; type: physicochemical; details: buffer

Sequence of Heat shock protein HSP 90-beta (P08238 whole entry): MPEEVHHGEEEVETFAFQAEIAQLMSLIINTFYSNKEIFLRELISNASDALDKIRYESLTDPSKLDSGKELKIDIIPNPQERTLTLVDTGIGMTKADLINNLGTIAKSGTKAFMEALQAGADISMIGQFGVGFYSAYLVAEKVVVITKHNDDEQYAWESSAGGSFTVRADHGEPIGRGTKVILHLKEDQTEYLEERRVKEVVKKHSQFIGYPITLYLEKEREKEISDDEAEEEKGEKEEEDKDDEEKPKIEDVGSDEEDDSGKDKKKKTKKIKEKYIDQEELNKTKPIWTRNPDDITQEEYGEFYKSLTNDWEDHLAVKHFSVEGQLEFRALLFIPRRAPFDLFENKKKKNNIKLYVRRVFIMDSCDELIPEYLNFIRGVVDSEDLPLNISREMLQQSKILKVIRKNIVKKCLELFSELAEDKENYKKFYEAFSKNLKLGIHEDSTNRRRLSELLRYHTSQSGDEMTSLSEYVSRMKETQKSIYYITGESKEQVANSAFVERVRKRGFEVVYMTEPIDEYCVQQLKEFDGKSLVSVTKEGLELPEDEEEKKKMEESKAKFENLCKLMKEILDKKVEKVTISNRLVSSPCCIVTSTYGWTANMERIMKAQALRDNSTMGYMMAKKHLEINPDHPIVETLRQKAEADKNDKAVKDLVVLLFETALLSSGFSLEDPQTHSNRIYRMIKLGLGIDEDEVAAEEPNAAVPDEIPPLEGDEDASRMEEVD

For `CO[C@H]1/C=C\C=C(/C)C(=O)NC2=CC(=O)C(NCCN(C)C)=C(C[C@@H](C)C[C@H](OC)[C@H](NCCN(C)C)[C@@H](C)/C=C(\C)[C@@H]1OC(N)=O)C2=O` (stereo in doubt), the IC50 [1] was 460 nM, the pKa [2] was 6 and the Kd [3] was > 50000 nM.
`CO[C@H]1/C=C\C=C(/C)C(=O)NC2=CC(=O)C(NCCN(C)C)=C(C[C@@H](C)C[C@H](OC)[C@H](NCC(F)F)[C@@H](C)/C=C(\C)[C@@H]1OC(N)=O)C2=O` (stereo in doubt) showed an IC50 [1] of 370 nM, a pKa [2] of 7.5 and a Kd [3] of 2900 nM.
With `CO[C@H]1/C=C\C=C(/C)C(=O)NC2=CC(=O)C(NCCN(C)C)=C(C[C@@H](C)C[C@H](OC)[C@H](NCCC(F)(F)F)[C@@H](C)/C=C(\C)[C@@H]1OC(N)=O)C2=O` (stereo in doubt) the IC50 [1] was 830 nM, the pKa [2] was 8.9 and the Kd [3] was > 10000 nM.
For `CO[C@H]1/C=C\C=C(/C)C(=O)NC2=CC(=O)C(NCCN(C)C)=C(C[C@@H](C)C[C@H](OC)[C@H](NCCF)[C@@H](C)/C=C(\C)[C@@H]1OC(N)=O)C2=O` (stereo in doubt), the IC50 [1] was 390 nM, the pKa [2] was 9 and the Kd [3] was > 50000 nM.
For `CO[C@H]1/C=C\C=C(/C)C(=O)NC2=CC(=O)C(NCCN(C)C)=C(C[C@@H](C)C[C@H](OC)[C@H](N)[C@@H](C)/C=C(\C)[C@@H]1OC(N)=O)C2=O` (stereo in doubt), the IC50 [1] was 415 nM, the pKa [2] was 9.2 and the Kd [3] was > 25000 nM.
For `C=CCNC1=C2C[C@@H](C)C[C@H](OC)[C@H](OC(=O)CN)[C@@H](C)/C=C(\C)[C@H](OC(N)=O)[C@@H](OC)/C=C\C=C(/C)C(=O)NC(=CC1=O)C2=O` (stereo in doubt), the IC50 [1] was 350 nM, the half-life [4] was 78 h and the Kd [3] was > 25000 nM.
In the case of `COC1=C2C[C@@H](C)C[C@H](OC)[C@H](OC(=O)CN)[C@@H](C)/C=C(\C)[C@H](OC(N)=O)[C@@H](OC)/C=C\C=C(/C)C(=O)NC(=CC1=O)C2=O` (stereo in doubt), the IC50 [1] is reported as 480 nM, the half-life [4] is reported as 95 h and the Kd [3] is reported as > 25000 nM.
With `COC1=C2C[C@@H](C)C[C@H](OC)[C@H](OC(=O)CCCN)[C@@H](C)/C=C(\C)[C@H](OC(N)=O)[C@@H](OC)/C=C\C=C(/C)C(=O)NC(=CC1=O)C2=O` (stereo in doubt) the IC50 [1] was > 1000 nM, the half-life [4] was > 350 h and the Kd [3] was > 10000 nM.
Work on `CO[C@H]1/C=C\C=C(/C)C(=O)NC2=CC(=O)C(NCCN(C)C)=C(C[C@@H](C)C[C@H](OC)[C@H](NCC(F)(F)F)[C@@H](C)/C=C(\C)[C@@H]1OC(N)=O)C2=O` (stereo in doubt) yielded an IC50 [1] of 270 nM, a pKa [2] of 5.7 and a Kd [3] of 4000 nM.
With `C=CCNC1=C2C[C@@H](C)C[C@H](OC)[C@H](OC(=O)CCN)[C@@H](C)/C=C(\C)[C@H](OC(N)=O)[C@@H](OC)/C=C\C=C(/C)C(=O)NC(=CC1=O)C2=O` (stereo in doubt) the IC50 [1] was 1800 nM, the half-life [4] was 130 h and the Kd [3] was > 25000 nM.
